Experimental data taken from patent US6784153B1, “Methods of homing molecules to lung using membrane dipeptidase” (The Burnham Institute, priority 1998, dated 2004).
Blank lines part the entries; values can stand above or below the compound they belong to.

What was measured:
lung primary cells = assay: phage binding assay on lung primary cells; set-up: species or system mice; conditions: 150 μM peptide
Method: Phage binding to primary cells was performed as follows. Briefly, Balb/c mice (Harlan Sprague Dawley) were anesthetized with 0.017 ml/g of Avertin as described in Gardner et al., Lab. […] Under deep anesthesia, mice were perfused through the heart with 10 ml Dulbecco's modified Eagle's medium (DMEM; Irvine Scientific; Santa Ana, Calif.). The lungs, kidneys and brain were then collected, minced, placed in 2 ml of DMEM containing 0.5% BSA (Intergen; Purchase, N.Y.) and 0.5 μg/ml collagenase V (SIGMA) and incubated at 37° C. for 25 minutes. Following collagenase treatment, the tissue was forced through a […] pore cell strainer (Becton Dickinson; Franklin Lake, N.J.). The filtered cells were washed once with 10 ml DMEM supplemented with 10% serum.
For the binding reaction, 10^9 transducing units (TU) of phage were incubated with 5×10^6 cells in 1 ml DMEM supplemented with 10% serum. The binding was performed at 4° C. for 2 hours with gentle agitation. After the binding reaction, the cells were washed four times with 1 ml of DMEM supplemented with 10% serum at room temperature for 5 to 10 minutes each time. The cells were centrifuged, and the cell pellet resuspended in 100 μl of DMEM and transferred to a new tube. […] The bacteria were then diluted in 10 ml of LB culture media supplemented with 0.2 μg/ml tetracycline, and incubated for another 30 minutes at room temperature. Serial dilutions of the bacterial culture were plated on LB plates containing 40 μg/ml tetracycline. Plates were incubated at 37° C. overnight before the colonies were counted (transducing units, TU).

[1] = biological target: T1, 55 kDa lung vascular surface protein (Mus musculus, UniProt P31428); assay: peptide affinity chromatography of in vivo biotinylated lung extract; type: binding; conditions: elution with GFE-1 peptide
T1 construct: from tissue; host or cells: Balb/c mouse lung, in vivo biotinylated, octylglucoside extract
T1 sequence (P31428 17-384): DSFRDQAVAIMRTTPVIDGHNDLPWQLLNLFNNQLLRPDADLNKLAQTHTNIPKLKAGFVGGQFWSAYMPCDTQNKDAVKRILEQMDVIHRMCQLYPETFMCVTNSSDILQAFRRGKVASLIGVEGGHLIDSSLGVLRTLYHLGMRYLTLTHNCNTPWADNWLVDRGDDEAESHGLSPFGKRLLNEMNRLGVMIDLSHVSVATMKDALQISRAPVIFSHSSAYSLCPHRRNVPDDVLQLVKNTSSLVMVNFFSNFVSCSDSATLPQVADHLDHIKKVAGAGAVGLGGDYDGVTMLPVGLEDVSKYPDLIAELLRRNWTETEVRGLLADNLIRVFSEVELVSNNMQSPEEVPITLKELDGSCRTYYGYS
Method: In vivo biotinylation of endothelial cell surface proteins was performed as previously described in De La Fuente et al., Am. J. Physiol. […] Briefly, Balb/c mice were anesthetized with Avertin and perfused slowly through the heart for 10 to 15 minutes with approximately 15 ml of PBS containing 0.5 mg/ml of sulfo-NHS-LC-biotin (Pierce; Rockford, Ill.). Well perfused lungs or control tissues such as brain were then collected and incubated on ice for 20 minutes. The tissues were then homogenized for preparation of extracts as described further below.
For preparation of extracts, mouse or rat lungs were first minced and then homogenized with a Brinkman homogenizer (Brinkman; Wesbury, N.Y.) in a minimal volume (2.5 ml/g of tissue) of cold PBS containing 100 mM N-octyl-β-D-glucopyranoside (Calbiochem; La Jolla, Calif.) with 1 mM phenylmethylsulfonyl fluoride (PMSF), 20 μg/ml aprotinin and 1 μg/ml leupeptin (PBS/octylglucoside). The homogenized tissue was incubated on ice for 2 hours, and then centrifuged at 12,000×g for 30 minutes to remove cell debris. The pooled supernatants were cleared of any debris prior to affinity chromatogaphy.
All steps were performed at 4° C. […] The matrix contained approximately 2 mg/ml of peptide. […] The extract was applied to the column, and the flow-through re-applied over a period of 90 minutes. The column was then washed with 20 volumes of column buffer. […]

skin [2] = assay: in vivo homing of phage displaying peptides to skin; set-up: species or system mice
Method: For in vivo panning of skin, two month old BALB/c nude mice were used to avoid contamination by hair. The mice were injected intravenously with phage as described above and, after perfusion through the heart, the skin was removed in large sections and placed on an ice cold plate with the hypodermis facing up. The skin was scraped with a scalpel to remove mostly hypodermis, which was then processed for phage recovery as described below.
Approximately 250 to 300 individual bacterial colonies containing phage recovered from the various organs or tissues were grown for 16 hr in 5 ml NZY/tet. In some experiments, approximately 1000 individual bacteria containing phage were picked and the phage were amplified in 2 ml of NZY/tet or the entire plate containing phage was scraped, pooled and grown in bulk and processed for injection. Where phage were cultured separately, the cultures were pooled and the phage were injected into mice or rats as described above for a second round of in vivo panning. In some experiments, a third or fourth round of panning was performed. Phage DNA was purified from individual bacterial colonies obtained and the DNA sequences encoding the peptides expressed by selected phage were determined (see Koivunen et al., supra, 1994b).
in After two or three rounds of in vivo panning of mice injected with a cyclic CX3CX3CX3C (SEQ ID NO: 25) phage display library, the peptide sequence CVALCREACGEGC (SEQ ID NO: 3), which appeared repeatedly in skin, was identified (Table 1). To determine the specificity of skin homing of the sequence CVALCREACGEGC (SEQ ID NO: 3), phage displaying the peptide was amplified individually, diluted to the same input titer and administered to mice. Following administration, control kidney and brain organ were removed and the number of TU of phage in skin, kidney and brain was determined.
Peptides that were identified more than one time during screening are indicated by an asterisk. For example, 14% of recovered CX3CX3CX3C (SEQ ID NO: 25) phage that homed to head skin had the sequence CVDVCCDGCPVCC (SEQ ID NO: 437). Phage having the sequence RVPLSGDVEH (SEQ ID NO: 438), LRVMSFTSGQ (SEQ ID NO: 439), or RFSVGSLFGS (SEQ ID NO: 440) each constituted 14% of recovered CX10C (SEQ ID NO: 30) phage that homed to head skin.

skin [3] = assay: immunohistologic analysis of skin homing phage; type: in vivo, mice
Method: Phage displaying homing peptides were detected in lung, pancreas and skin by immunostaining histologic sections obtained 5 min after administration of phage expressing a lung, pancreas or skin homing peptide (“peptide-phage”) to a mouse. Following administration of the peptide-phage, mice were handled as described above and various organs, including lung, pancreas and skin, were removed and fixed in Bouin's solution (SIGMA). Histologic sections were prepared and reacted with anti-M13 (phage) antibodies (Pharmacia Biotech; see U.S. Pat. No. 5,622,699, supra, 1997; Pasqualini and Ruoslahti, supra, 1996). Visualization of the bound anti-M13 antibody was performed using a second antibody conjugated to peroxidase (SIGMA) according to the manufacturer's instructions.
Experiments were performed in skin using phage displaying the skin homing peptide CVALCREACGEGC (SEQ ID NO: 3). In these experiments, histological samples from the skin as well as control organs and tissues including lung and pancreas were prepared and examined by immunostaining as described above.

murine MDP = biological target: T2, murine MDP (Mus musculus, UniProt P31428); assay: phage binding to COS-1 cells transfected with MDP; conditions: 5×10^6 COS-1 cells, 10^10 TU phage
T2 construct: The amplified 1.3 kb murine MDP cDNA was digested with KpnI and XbaI, and inserted into the same sites of the pcDNA3 expression vector; expressed in transfected cells; host or cells: COS-1 cells, pcDNA3 expression vector
T2 sequence (P31428 17-384): T1 sequence (P31428 17-384)
Method: The COS-1 cell line, which is known to have low or no detectable level of MDP activity, has been used extensively to study MDP structure and function (Keynan et al., supra, 1996; Keynan et al., Biochem, J. 326:47-51 (1997)). COS-1 cells were trasfected with murine MDP and used to assay binding to SEQ ID NOS: 1 and 2 as described below.
For transfection into COS-1 cells, a murine MDP expression vector was prepared as follows. Total mouse lung RNA was isolated using Qiagen RNA purification columns (Qiagen; Santa Clarita, Calif.) and used as a template for first strand cDNA synthesis with reverse transcriptase and a mixture of random hexamers and poly-dT oligonucleotides (GIBCO/BRL; Grand Island, N.Y.). Mouse MDP cDNA (Pasqualini et al., J. Cell Biol. 130:1189-1196 (1995)) was amplified from the cDNA pool by PCR using the oligonucleotide pair: […] (SEQ ID NO: 446), which contains a KpnI adaptor, and […] (SEQ ID NO: 447), which contains an XbaI adaptor, using Taq polymerase from GIBCO/BRL. The amplified 1.3 kb murine MDP cDNA was digested with KpnI and XbaI, and inserted into the same sites of the pcDNA3 expression vector (Invitrogen; Carlsbad, Calif.) using DNA restriction enzymes and T4 DNA ligase from New England Biolabs (Beverly, Mass.). Successful cloning of the murine MDP cDNA was confirmed by DNA sequencing. Transfection of the COS-1 cells was performed with the Superfect Reagent from Qiagen as recommended by the manufacturer.
(§1) Phage binding to COS-1 cells transfected with MDP was determined as follows. Briefly, 10^7 COS-1 cells were transfected with 10 μg of either the MDP expression vector or the vector alone. After 48 hours, cells were scraped gently from the dish, washed once, and subjected to the phage binding assay or membrane dipeptidase activity assay described above. For the phage binding assay, 5×10^6 cells and 10^10 transducing units (TU) of phage input were used. For measurement of membrane dipeptidase activity, 10^6 cells were lysed in 100 μl of PBS/octylglycoside without protease inhibitors. A 10 μl aliquot of the extract was used to measure MDP activity.

[4] = tested on: C8161 human melanoma cells
MDP [5] = biological target: T3, MDP (Mus musculus, UniProt P31428); assay: inhibition of MDP activity (hydrolysis of Gly-D-Phe, fluorimetric); type: biochemical, murine; conditions: Gly-D-Phe 0.5 mM; extracts from MDP-expressing COS-1 cells
T3 construct: The amplified 1.3 kb murine MDP cDNA was digested with KpnI and XbaI, and inserted into the same sites of the pcDNA3 expression vector; expressed in transfected cells; host or cells: COS-1 cells, pcDNA3 expression vector
T3 sequence (P31428 17-384): T1 sequence (P31428 17-384)
Method: […] […] Fluorescence was measured using an fmax fluorescence microplate reader from Molecular Devices (Sunnyvale, Calif.).
as §1
Fluorimetric detection of D-Phe was performed as described above.

MDP [6] = conditions: cited from earlier work

Compound: GRGESP: control peptide [reference compound]
- inhibition of GFE-1 phage binding to lung cells (lung primary cells): no effect
- binding of lung surface protein to peptide affinity column [1]: No proteins in the 55 kDa range were detected

Compound: CVALCREACGEGC [skin homing peptide]
- % OF MOTIF AMONG ALL CLONES (skin [2]; SKIN): 6%
- skin/brain phage ratio (skin [2]; SKIN section): 7
- phage bound to skin than to kidney or brain (skin [2]; individually amplified phage): 7 ×
- enriched in skin over unselected phage (skin [2]; mouse, in vivo): 7 ×
- selectivity for skin over unselected phage and over background in brain and kidney (skin [2]; mouse, in vivo): 7 fold
- immunostaining of skin (skin [3]; 5 min after phage): staining in blood vessels of the hypodermis
- staining of lung and pancreas after skin homing phage (skin [3]; control tissues): no staining was observed in control the lung and pancreas
- phage bound to MDP transfected cells than to mock transfected cells (murine MDP): no specific binding

- inhibition of hydrolysis of Gly-D-Phe by MDP (MDP [5]): did not inhibit the enzyme
Compound: O=c1[nH]cc(F)c(=O)[nH]1 [CARAC, reference compound]
- toxicity to the melanoma cells [4]: Neither the GFE-1 (SEQ ID NO: 1) or CARAC (SEQ ID NO: 443) peptides exhibited toxicity

Compound: CCCCC/C=C(\NC(=O)C1CC1(C)C)C(=O)O (racemic) [Z-2-(2,2 dimethylcyclopropanecarboxamido)-2-octenoic acid]
- activity of resolved isomers (MDP [6]): Activity resides in the dextrorotatory isomer
